Patent US9296787B2, “Antitumor peptide and use thereof” (priority 2011, dated 2016)
Like-named read-outs stand apart in the source and are kept apart here. Positions of bridges follow the written chain, without caps; N, C: chain ends. Residues, ends and D or L forms follow the SMILES beside them. No end group written: not given here.

Legend:
Type in all cases: cell-based
[1] = system: mouse neuroblastoma cell line (N1E-115); conditions: for A450(-A620) After 24 hers: WST-8 absorbance after 24 hours; for A450(-A620) After 6 hers: WST-8 absorbance after 6 hours
Procedure: Some of the sample peptides obtained in Example 1 were tested for antitumor activity against target cultured tumor cells. Details of the assay are as described below.
(§1) As the tumor cells tested, a commercial mouse neuroblastoma cell line (N1E-115) was used. The cell line was cultured beforehand in a DMEM medium (i.e. Dulbecco MEM medium (DMEM medium, a Gibco product) containing 10% fetal bovine serum (FBS, a Gibco product), 2 mM of L-glutamine, 50 unit/mL of penicillin, and 50 μg/mL of streptomycin), and the number of cells per well in a 96-well plate was adjusted to approximately 5×10^3. The volume of the medium for this was 100 μL per well.
(§2) Subsequently, the stock solution of each sample peptide shown in Table 3 was added to each well to a peptide concentration in the well of 50 μM or 100 μM.
(§3) After the sample peptides were added as described above, the 96-well plate was placed in a CO2 incubator and cultured without agitation at 37° C. under 5% CO2. At the time of the peptide addition (at the start of treatment) and at 6 hours or 24 hours from the peptide addition and the start of incubation, the viability status of the cultured cells tested was analyzed with a commercial colorimetric assay kit. In particular, to each cell-culturing well, “water-soluble tetrazolium salt (WST-8)” was added as a colorimetric reagent; after two hours of incubation following the addition, the cell culture medium supplied with the colorimetric reagent was collected; and the level of inhibition of cell proliferation was evaluated by colorimetry, measuring the absorbance at a wavelength of 450 nm (values corrected with the absorbance at a wavelength of 620 nm, A450-A620) based on reduction of tetrazolium salt. Based on the absorbance at the time of the sample peptide addition (at the start of treatment), the percent decrease in the absorbance after 6 hours or 24 hours was determined as the cell proliferation inhibition rate (%).

[2] = system: HeLa cells; assay: Multipolar spindle formation, DAPI and anti-tubulin immunofluorescence microscopy; conditions: after 24 hours
Procedure: In addition, the cultured cells supplemented with the peptides were observed under fluorescence microscope. Herein, as for some examples, the observations on Samples 1, 9, 13, 16, 21 and 35 are outlined. In particular, each peptide was added to a peptide concentration in a well of 50 μM (Samples 1, 9) or 100 μM (Samples 13, 16, 21, 35). After 24 hours, the cultured cells were subjected to nuclear staining with DAPI (4′,6-diamidino-2-phenylindole) and observed under fluorescence microscope. As a marker for spindles, α-tubulin was used; and the cells were tested for the presence of tubulin (i.e. the presence of spindles) by immunofluorescence, using a fluorescence-labeled anti-tubulin antibody to identify the tubulin. FIGS. 1 to 6 show merged images of DAPI-stained images and fluorescence images showing the results of the immunofluorescence assays using the fluorescence-labeled anti-tubulin antibody.

[3] = system: human alveolar basal epithelial adenocarcinoma cells, A549; conditions: for antitumor activity (tumor cell proliferation-inhibiting activity), in words: A549, 50 μM, 24 hours, summary of Table 5; for A450(-A620) After 24 hers: A549, peptide 50 μM, WST-8 absorbance after 24 hours
Procedure: as §1, §2, §3
Cells forming a […] (human alveolar basal epithelial adenocarcinoma cells, A549) were substituted for the tumor cells tested and the same test as Example 2 described above was carried out. In the present example, the peptides of Samples 1 to 13, 15 to 22, 24, 29, 35 and 40 were used.

[4] = system: HeLa cells (HeLa S3); conditions: WST-8 absorbance after 24 hours
Procedure: as §1, §2, §3
HeLa cells (HeLa S3) were substituted for the tumor cells tested and the same test as Example 2 described above was carried out. In the present example, the peptides of Samples 1 to 7, 9, 10, 13, 16, 21 and 35 were used.

Molecule	A450(-A620) After 24 hers ([1]; N1E-115, peptide 50 μM)	A450(-A620) After 24 hers ([1]; N1E-115, peptide 100 μM)	formation of multipolar spindles (presence of many multipolar cells) ([2]; peptide 100 μM)	antitumor activity (tumor cell proliferation-inhibiting activity), in words [3]	A450(-A620) After 24 hers [3]	A450(-A620) After 24 hers ([4]; HeLa S3, peptide 50 μM)	A450(-A620) After 24 hers ([4]; HeLa S3, peptide 100 μM)	A450(-A620) After 6 hers ([1]; N1E-115, peptide 50 μM)	A450(-A620) After 6 hers ([1]; N1E-115, peptide 100 μM)	formation of multipolar spindles (presence of many multipolar cells) ([2]; peptide 50 μM)	antitumor activity (tumor cell proliferation-inhibiting activity), in words ([1]; N1E-115, 50 or 100 μM, summary of Table 3)
GPHLGMNQRRRP [Sample 21, GPHLGMNQRRRP]	0.5284	0.5810	formation of multipolar spindles	high antitumor activity	1.5672						
CSCC[C@@H]1NC(=O)[C@H](CCCCN)NC(=O)[C@H]([C@@H](C)O)NC(=O)[C@H](CCC(N)=O)NC(=O)CNC(=O)[C@H](CC(C)C)NC(=O)[C@@H](N)CSSC[C@@H](C(=O)O)NC(=O)[C@H](CCCNC(=N)N)NC1=O [Sample 3, CLGQTKMRC] (H-CLGQTKMRC-OH; disulfide 1-9; N-terminus and C-terminus assumed)				high antitumor activity	1.7022	0.1194	0.0997				
SVSVGMKPSPRPKKRTLRKNDRKKR [Sample 35]			formation of multipolar spindles	high antitumor activity	1.7451						
SVSVGMKPSPRP [Sample 13, SVSVGMKPSPRP]	0.5681	0.6422	formation of multipolar spindles		1.9412						
CC(C)C[C@@H]1NC(=O)[C@@H]2CCCN2C(=O)[C@H](Cc2ccccc2)NC(=O)[C@H](C)NC(=O)[C@H](Cc2c[nH]c3ccccc23)NC(=O)[C@@H](N)CSSC[C@@H](C(=O)O)NC(=O)[C@H](Cc2c[nH]cn2)NC(=O)[C@H](Cc2c[nH]cn2)NC1=O [Sample 5, CWAFPLHHC] (H-CWAFPLHHC-OH; disulfide 1-9; N-terminus and C-terminus assumed)					1.8994	0.0955	0.0952				
GPHHYWYHLRLP [Sample 16, GPHHYWYHLRLP]	0.6912	0.6048	formation of multipolar spindles		1.7309						
CC(C)C[C@@H]1NC(=O)[C@H]([C@@H](C)O)NC(=O)[C@@H](N)CSSC[C@@H](C(=O)O)NC(=O)[C@H](CC(N)=O)NC(=O)[C@H](CO)NC(=O)[C@H](Cc2c[nH]cn2)NC(=O)[C@H](CO)NC(=O)[C@H](CC(N)=O)NC1=O [Sample 6, CTLNSHSNC] (H-CTLNSHSNC-OH; disulfide 1-9; N-terminus and C-terminus assumed)	0.3083	0.2830		high antitumor activity	1.4667	0.1174	0.0906	0.1633	0.1345		
C[C@@H]1NC(=O)[C@H](Cc2c[nH]c3ccccc23)NC(=O)[C@H](Cc2c[nH]cn2)NC(=O)CNC(=O)[C@H]([C@@H](C)O)NC(=O)[C@@H](N)CSSC[C@@H](C(=O)O)NC(=O)[C@H](CCC(=O)O)NC(=O)[C@H](CO)NC1=O [Sample 10, CTGHWASEC] (H-CTGHWASEC-OH; disulfide 1-9; N-terminus and C-terminus assumed)					1.7472	0.0909	0.0915				
CC(C)C[C@@H]1NC(=O)[C@@H](N)CSSC[C@@H](C(=O)O)NC(=O)[C@H](CCCCN)NC(=O)[C@H](CO)NC(=O)[C@@H]2CCCN2C(=O)[C@H](CO)NC(=O)[C@@H]2CCCN2C(=O)[C@H](C)NC1=O [Sample 2, CLAPSPSKC] (H-CLAPSPSKC-OH; disulfide 1-9; N-terminus and C-terminus assumed)	0.3926	0.3764			1.8971	0.0924	0.0739	0.2235	0.2094		
CC(C)C[C@@H]1NC(=O)[C@H](CO)NC(=O)[C@@H]2CCCN2C(=O)[C@@H]2CCCN2C(=O)[C@H](CCCNC(=N)N)NC(=O)[C@@H]2CCCN2C(=O)[C@@H](N)CSSC[C@@H](C(=O)O)NC(=O)[C@H](CCC(=O)O)NC1=O [Sample 9, CPRPPSLEC] (H-CPRPPSLEC-OH; disulfide 1-9; N-terminus and C-terminus assumed)					1.8645	0.1366	0.0892			formation of multipolar spindles	
C[C@@H]1NC(=O)[C@H](CO)NC(=O)[C@H](CO)NC(=O)[C@@H](N)CSSC[C@@H](C(=O)O)NC(=O)[C@H](CO)NC(=O)[C@H](CCCCN)NC(=O)CNC(=O)[C@H]([C@@H](C)O)NC1=O [Sample 1, CSSATGKSC] (H-CSSATGKSC-OH; disulfide 1-9; N-terminus and C-terminus assumed)	0.1578	0.1119		high antitumor activity	1.5487	0.1028	0.0891	0.1361	0.1104	formation of multipolar spindles	high antitumor activity
